The results in this text go back to US20090317372A1, “SMALL MOLECULES FOR THE REDUCTION OF HIGH BLOOD GLUCOSE LEVEL” (priority 2008, published 2009).

Holding throughout (format): in vivo
Experiment [1] relates to C57/BL/6 mice. Briefly: Glucose tolerance test with normal mice, CCcompound1 and sub-optimal insulin. The following applies: CCcompound1 4.5-mg/kg i.p. 60 min and/or insulin 0.02 IU 15 min prior to glucose. Here is the method:
In this experiment, a sub-optimal dose of insulin (0.02 international unit-IU) was used to probe if CCcompound1 indeed can enhance the effect of insulin on blood glucose. Again C57/BL/6 female mice weighing 22-23-g and fasted for 14 hours prior to i.p. glucose administration (3-g/kg), were used. None of the animals received any food during the experiment other than glucose. The animals received i.p. injections of 4.5-mg/kg of CCcompound1 and/or 0.02 Unit insulin 60 min and 15 min prior to glucose administration, respectively. Blood samples were taken and glucose concentrations measured as indicated earlier. Each group included six animals. The data are the mean±std. dev. of 6 determinations, i.e. one determination with each of the six animals.

Experiment [2] concerns BDF1 (C57/BL/6 female×DBA/2 male) mice. Description: Glucose tolerance test with BDF1 mice, CCcompound1 and sub-optimal insulin. The following applies: CCcompound1 4.5-mg/kg i.p. −15 min and/or insulin 0.02 IU −10 min. Here is the method:
In this experiment again, a sub-optimal dose of insulin was used to probe if CCcompound1 can enhance the effect of insulin on blood glucose. This time first generation hybrid BDF1 (C57/BL/6 female×DBA/2 male) adult (10-12 weeks old) male mice weighing 28-30-g and fasted for 14 hours before i.p. glucose administration (3-g/kg) were used. These mice were […] than mice in the previous experiment described under Example 5. None of the animals received any food during the experiment other than glucose. The animals received i.p. injections of 4.5-mg/kg of CCcompound1 and 0.02 IU of insulin 15 min and 10 min prior to glucose administration. Blood samples were taken and glucose concentrations in whole blood samples determined as described earlier. Each group included six animals. The data are the mean±std. dev. of 6 determinations, i.e. one determination with each of the six animals.

For experiment [3], the system named is C57/BL/6 mice. Briefly: Glucose tolerance test with normal mice (CC1, CC3, CC19). The conditions noted are these: for Reduction of blood glucose level: 30th min of test period. As to the method:
C57/BL/6 female mice weighing 22-23-g and fasted for 14 hours before intraperitoneal (i.p.) administration of glucose (3-g/kg) were used. None of the animals received any food during the experiment other than glucose. The animals received i.p. injections of 4.5-mg/kg of CCcompound1, CCcompound3, or CCcompound19 either 1 hour or 24 hours prior to glucose administration as indicated in TABLE 3. Blood samples were taken from the eyes (canthus), and glucose concentrations in whole blood samples were immediately measured with the Fast Glucose C test. Each group included six animals. The data, shown in TABLE 3, are the mean±std. dev. of 6 determinations, i.e. one determination with each of the six animals. In this and all subsequent experiments the values at 0 min reflect glucose concentration in blood samples collected 1-5 minutes prior to the administration of glucose.

For another experiment, the system named is Wistar rats. Description: Glucose tolerance test in starved rats. As to the method:
Male Wistar rats weighing 240-270-g were divided into 3 groups, each group consisting of 6 or 7 animals. To ensure standard conditions animals were starved for 14 hours before the start of the experiment. CCcompound1 and CCcompound3 were injected (i.p.) 30 min prior to injecting 3-g/kg of glucose (i.p.). Blood sugar values of the experimental animals were measured with the Fast Glucose C-test; blood samples were taken from the tail. The data are the mean±std. dev. of 6-7 determinations, i.e. one determination with each of the 6-7 animals in the respective groups.

The next experiment concerns ob/ob mice. Description: Blood glucose level of normally fed ob/ob obese diabetic mice, daily treatment. The conditions noted are these: second experiment. From the text: Adult female leptin-deficient ob/ob obese diabetic inbred specified pathogen free (SPF) hygienic category mice from Charles River VRF1 were used for these experiments. The mice weighed 32-36-g at arrival. The ob/ob obese mouse is an extensively used animal model for the study of non-insulin-dependent-diabetes mellitus (NIDDM). The mutation was propagated in the C57BL/6J (BL/6) inbred strain. Homozygous obese (ob/ob) animals developed hyperglycemia due to insulin resistance, hyperinsulinemia (to compensate for reduced insulin action), and obesity. In these animals gluconeogenesis is enhanced despite their hyperinsulinemic state. The animals were kept in macrolon cages at 22-24° C. and 50-60% humidity, with lighting regimen of 12/12 h light dark. They had free access to tap water and were fed a sterilized standard diet (Charles River VRF1, autoclavable). The animals were cared for according to the “Guiding Principles for the Care and Use for Animals” based upon the Helsinki declaration. The ob/ob mice gained weight rapidly and developed a marked obesity by 5-6 weeks of age. […] When arrived they were 5 weeks old (when the experiment was performed with CCcompound1) or 4.5 weeks old (when the experiment was performed with CCcompound3 and CCcompound19). The treatments started 8 days later in the experiment performed with CCcompound1 and 10 days later in the experiment performed with CCcompound3 and CCcompound19. Experimental groups selected from ob/ob mice were injected subcutaneously (s.c.) at regular intervals once daily for 14 days with CCcompound1 or an analog (CCcompound3 or CCcompound19) each at the dose of 4.5-mg per kg. Control groups were also selected from ob/ob mice that remained untreated during the entire length of the experiment. In the first experiment, for which the data is presented in TABLE 11, blood samples were taken either 45 min or 6 hours after treatments with CCcompound1. In the second experiment, for which the data is presented in TABLE 12, blood samples were taken 45 min after treatments with the analogs of CCcompound1. Blood glucose was determined with the Fast Glucose C test. Both the untreated and CC compound-treated groups included 5 animals. The data are the mean±std. dev.

Experiment [4] relates to C57/BL/6 mice. Briefly: Glucose tolerance test with normal mice, PALP and CCcompound1 combined. The conditions noted are these: PALP 0.4 mg/mouse i.p. −24 h. Here is the method: Female C57/BL/6 mice weighing 24-26-g and fasted for 12 hours before i.p. glucose administration (3 g/kg) were used. None of the animals received any food during the experiment other than glucose. One group of animals was untreated while animals in other groups received subcutaneous (s.c.) injections of 2.0 or 4.5-mg/kg of CCcompound1 either 30 min or 60 min prior to glucose administration as indicated in TABLE 5. Two groups of animals received i.p. injections of 0.4-mg per mouse (˜16-mg per kg) of highly purified PALP 24 hours prior to glucose administration. Purification of PALP was described in detail earlier [Z. Kiss, U.S. Pat. No. 7,048,914, “Placental Alkaline Phosphatase to Control Diabetes]. Animals in one of the PALP treated group also received s.c. injections of 4.5-mg/kg of CCcompound1 30 min prior to glucose administration as indicated in TABLE 5. Blood samples were taken and glucose concentrations were immediately measured as described earlier. Each group included five animals. The data are the mean±std. dev. of 5 determinations, i.e. one determination with each of the five animals. “-min” and “-h” indicates the length of period in minutes and hours, respectively, elapsed between the administration of test agents (first) and glucose (second).

Where [5] appears, read: 4.5-mg/kg i.p. 1 h prior to glucose 3-g/kg i.p., 0 min.
Setting [6] is: 4.5-mg/kg i.p. 1 h prior to glucose.
Where [7] appears, read: 4.5-mg/kg i.p. 1 h prior to glucose, 30 min.
Where [8] appears, read: 4.5-mg/kg i.p. 1 h prior to glucose, 60 min.
The mark [9] stands for this setting: 4.5-mg/kg i.p. 1 h prior to glucose, 120 min.
Where [10] appears, read: 4.5-mg/kg i.p. 1 h prior to glucose, 180 min.
The mark [11] stands for this setting: 4.5-mg/kg s.c. once daily, 45 min after treatment, day 1.
[12] abbreviates: 4.5-mg/kg s.c. once daily, day 0.

In the case of “Insulin: insulin, sub-optimal dose 0.02 IU [reference compound]”, the Blood glucose in the experiment on C57/BL/6 mice [1] (0 min) is 2.1 ± 0.6 mM; with C57/BL/6 mice [1] (30 min) it was 7.2 ± 0.4 mM; with C57/BL/6 mice [1] (60 min) it was 5.6 ± 0.5 mM; with C57/BL/6 mice [1] (120 min) it was 3.8 ± 0.4 mM; in experiment [2] (0 min) it was 3.1 ± 0.4 mM; in experiment [2] (30 min), 6.4 ± 0.5 mM. This molecule also registered a Blood glucose in experiment [2] (60 min) of 5.6 ± 0.3 mM.

With `CC[N+](C)(CC)CCOCc1ccc2sc3ccccc3c(=O)c2c1` [CCcompound 3], the Blood glucose in the experiment on C57/BL/6 mice [3] (setting [5]) came to 1.7 ± 0.5 mM; in the experiment with C57/BL/6 mice [3] (setting [7]) it was 6.6 ± 0.3 mM; in the experiment on C57/BL/6 mice [3] (setting [8]) it was 5.0 ± 0.2 mM; with C57/BL/6 mice [3] (setting [9]) it was 3.6 ± 0.5 mM; in the experiment with C57/BL/6 mice [3] (setting [10]), 2.7 ± 0.4 mM; with Wistar rats (rats starved 14 h, i.p. 30 min prior to glucose 3-g/kg i.p., 0 min), 4.73 ± 0.24 mM. Further, the Blood glucose in the experiment with Wistar rats (rats, i.p. 30 min prior to glucose, 30 min) was 9.36 ± 0.43 mM; with Wistar rats (rats, i.p. 30 min prior to glucose, 60 min), 6.66 ± 0.33 mM; in the experiment on Wistar rats (rats, i.p. 30 min prior to glucose, 90 min), 5.71 ± 0.38 mM; in the experiment on Wistar rats (rats, i.p. 30 min prior to glucose, 120 min), 5.43 ± 0.60 mM; with ob/ob mice (setting [11]), 7.6 ± 0.7 mM; in the experiment on ob/ob mice (setting [12]) it was 9.1 ± 0.6 mM. For the same molecule, the Blood glucose in the experiment on ob/ob mice (45 min after treatment, day 5) is recorded as 8.6 ± 0.9 mM; in the experiment on ob/ob mice (45 min after treatment, day 10) it was 11.0 ± 0.6 mM; in the experiment on ob/ob mice (45 min after treatment, day 15) it was 12.6 ± 0.5 mM. Besides, the “Reduction of blood glucose level” value in the experiment with C57/BL/6 mice [3] (setting [6]) came out at 19%.

Consider `C[N+](C)(C)CCC=C1c2ccccc2Sc2ccccc21.[I-]` [CCcompound 19, N,N,N-trimethyl-3-(9H-thioxanthen-9-ylidene)-propane-1-aminium iodide], for which the Blood glucose in the experiment with C57/BL/6 mice [3] (setting [5]) came out at 2.1 ± 0.5 mM; in the experiment with C57/BL/6 mice [3] (setting [7]), 5.7 ± 0.4 mM; in the experiment with C57/BL/6 mice [3] (setting [8]), 4.6 ± 0.6 mM; in the experiment on C57/BL/6 mice [3] (setting [9]) it was 3.1 ± 0.2 mM; in the experiment with C57/BL/6 mice [3] (setting [10]), 2.2 ± 0.4 mM; with ob/ob mice (setting [11]) it was 6.2 ± 0.9 mM. In addition, the Blood glucose in the experiment on ob/ob mice (setting [12]) was determined as 9.3 ± 0.7 mM; with ob/ob mice (45 min after treatment, day 5) it was 7.7 ± 0.5 mM; in the experiment with ob/ob mice (45 min after treatment, day 10), 9.3 ± 0.9 mM; with ob/ob mice (45 min after treatment, day 15), 10.4 ± 1.0 mM. Further, the “Reduction of blood glucose level” value in the experiment on C57/BL/6 mice [3] (setting [6]) is recorded as 23%.

B1: PALP: highly purified placental alkaline phosphatase (protein, UniProt P05187 23-506, looked up)
Alkaline phosphatase, …: IIPVEEENPDFWNREAAEALGAAKKLQPAQTAAKNLIIFLGDGMGVSTVTAARILKGQKKDKLGPEIPLAMDRFPYVALSKTYNVDKHVPDSGATATAYLCGVKGNFQTIGLSAAARFNQCNTTRGNEVISVMNRAKKAGKSVGVVTTTRVQHASPAGTYAHTVNRNWYSDADVPASARQEGCQDIATQLISNMDIDVILGGGRKYMFRMGTPDPEYPDDYSQGGTRLDGKNLVQEWLAKRQGARYVWNRTELMQASLDPSVTHLMGLFEPGDMKYEIHRDSTLDPSLMEMTEAALRLLSRNPRGFFLFVEGGRIDHGHHESRAYRALTETIMFDDAIERAGQLTSEEDTLSLVTADHSHVFSFGGYPLRGSSIFGLAPGKARDRKAYTVLLYGNGPGYVLKDGARPDVTESESGSPEYRQQSAVPLDEETHAGEDVAVFARGPQAHLVHGVQEQTFIAHVMAFAACLEPYTACDLAPPAGTTD
Take B1: the Blood glucose in the experiment with C57/BL/6 mice [4] (0 min) came out at 3.7 ± 0.5 mM; in the experiment on C57/BL/6 mice [4] (30 min) it was 6.8 ± 0.3 mM; in the experiment with C57/BL/6 mice [4] (60 min) it was 5.3 ± 0.4 mM; in the experiment with C57/BL/6 mice [4] (120 min), 4.3 ± 0.5 mM.
